Data published in patent US10780042B2, “Cosmetic compositions” (Symrise AG, priority 2015, dated 2020).

Legend:
POMC gene expression = experiment: Particle induced POMC gene expression in human epidermal keratinocytes (qRT-PCR); type: cell-based
Protocol: (§1) Gene expression was induced by different model particles. […] The details are set out in Table 1:
(§2) Gene expression was analyzed via qRT-PCR.
(§3) Ginger root CO2 extract has been dissolved in DMSO and diluted in medium. […] Gene expression was analyzed via qRT-PCR. […] Table 7 compiles the results for ginger root CO2 extract altered POMC and IL-6 gene expression
(§4) Purple coneflower pressed juice has been dissolved directly in medium. […] Gene expression was analyzed via qRT-PCR. […] Table 8 compiles the results for purple coneflower pressed juice altered POMC and IL-6 gene expression
(§5) Gene expression was analyzed via qRT-PCR. […] Table 9 compiles the results for purple coneflower pressed juice altered POMC and IL-6 gene expression

5-lipoxygenase = biological target: T1, 5-lipoxygenase (Homo sapiens, UniProt P09917); details: described in WO 200 230385 A2 (Henkel); cited from earlier work
T1 sequence (P09917 1-674): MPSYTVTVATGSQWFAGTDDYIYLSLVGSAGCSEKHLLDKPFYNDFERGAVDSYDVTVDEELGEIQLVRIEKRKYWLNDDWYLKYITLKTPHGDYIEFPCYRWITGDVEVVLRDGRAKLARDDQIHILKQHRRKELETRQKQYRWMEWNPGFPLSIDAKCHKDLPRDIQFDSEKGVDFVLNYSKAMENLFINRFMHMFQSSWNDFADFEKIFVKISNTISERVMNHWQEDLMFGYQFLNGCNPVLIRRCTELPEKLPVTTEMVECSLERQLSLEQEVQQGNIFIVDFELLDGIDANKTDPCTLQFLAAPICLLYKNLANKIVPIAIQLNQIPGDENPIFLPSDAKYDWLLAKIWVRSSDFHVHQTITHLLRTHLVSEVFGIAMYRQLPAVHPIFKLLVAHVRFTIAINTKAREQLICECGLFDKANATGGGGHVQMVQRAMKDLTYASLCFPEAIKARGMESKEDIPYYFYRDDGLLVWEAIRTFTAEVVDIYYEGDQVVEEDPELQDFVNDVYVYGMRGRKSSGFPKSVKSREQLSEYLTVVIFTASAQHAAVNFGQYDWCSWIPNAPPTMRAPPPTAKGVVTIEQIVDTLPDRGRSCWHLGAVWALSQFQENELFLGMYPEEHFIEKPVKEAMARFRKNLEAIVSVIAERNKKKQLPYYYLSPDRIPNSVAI

cyclooxygenase-1 = cyclooxygenase-1 (Homo sapiens, UniProt P23219); details: described in WO 200 230385 A2 (Henkel); cited from earlier work
CYP1A1 gene expression = experiment: Particle induced CYP1A1 gene expression in human epidermal keratinocytes (qRT-PCR); type: cell-based; details: for CYP1A1 Induction mean ± SE: 10 μM BDDI
Protocol: as §1, §2

IL-6 gene expression = experiment: Particle induced IL-6 gene expression in human epidermal keratinocytes (qRT-PCR); type: cell-based
Protocol: as §1, §2, §3, §4, §5

MMP1 gene expression = experiment: Particle induced MMP1 gene expression in human epidermal keratinocytes (qRT-PCR); type: cell-based
Protocol: as §1, §2

AhR = biological target: T2, AhR (Homo sapiens, UniProt P35869); details: stated as known; cited from earlier work
T2 sequence (P35869 11-848): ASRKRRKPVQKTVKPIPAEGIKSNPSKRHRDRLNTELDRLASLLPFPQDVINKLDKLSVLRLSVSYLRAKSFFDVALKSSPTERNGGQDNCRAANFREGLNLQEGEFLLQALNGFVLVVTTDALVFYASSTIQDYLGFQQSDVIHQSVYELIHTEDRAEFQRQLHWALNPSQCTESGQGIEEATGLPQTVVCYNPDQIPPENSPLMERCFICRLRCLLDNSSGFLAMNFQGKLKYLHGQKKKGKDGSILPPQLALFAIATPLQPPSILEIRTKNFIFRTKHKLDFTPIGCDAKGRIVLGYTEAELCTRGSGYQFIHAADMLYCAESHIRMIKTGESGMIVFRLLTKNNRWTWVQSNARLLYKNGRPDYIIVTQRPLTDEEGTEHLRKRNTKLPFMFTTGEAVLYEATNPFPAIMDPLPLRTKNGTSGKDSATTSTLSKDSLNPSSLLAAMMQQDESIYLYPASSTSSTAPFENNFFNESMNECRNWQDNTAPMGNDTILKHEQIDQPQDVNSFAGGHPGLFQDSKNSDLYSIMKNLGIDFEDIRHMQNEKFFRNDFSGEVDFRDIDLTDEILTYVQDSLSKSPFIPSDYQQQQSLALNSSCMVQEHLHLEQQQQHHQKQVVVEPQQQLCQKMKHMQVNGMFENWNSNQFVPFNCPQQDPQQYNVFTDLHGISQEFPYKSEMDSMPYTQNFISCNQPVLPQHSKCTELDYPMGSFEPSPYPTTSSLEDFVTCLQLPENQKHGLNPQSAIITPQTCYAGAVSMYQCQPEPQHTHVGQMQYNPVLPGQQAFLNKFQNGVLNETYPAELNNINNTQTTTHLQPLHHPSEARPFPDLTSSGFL

cyclooxygenase-1, sequence (P23219 24-599, species assumed): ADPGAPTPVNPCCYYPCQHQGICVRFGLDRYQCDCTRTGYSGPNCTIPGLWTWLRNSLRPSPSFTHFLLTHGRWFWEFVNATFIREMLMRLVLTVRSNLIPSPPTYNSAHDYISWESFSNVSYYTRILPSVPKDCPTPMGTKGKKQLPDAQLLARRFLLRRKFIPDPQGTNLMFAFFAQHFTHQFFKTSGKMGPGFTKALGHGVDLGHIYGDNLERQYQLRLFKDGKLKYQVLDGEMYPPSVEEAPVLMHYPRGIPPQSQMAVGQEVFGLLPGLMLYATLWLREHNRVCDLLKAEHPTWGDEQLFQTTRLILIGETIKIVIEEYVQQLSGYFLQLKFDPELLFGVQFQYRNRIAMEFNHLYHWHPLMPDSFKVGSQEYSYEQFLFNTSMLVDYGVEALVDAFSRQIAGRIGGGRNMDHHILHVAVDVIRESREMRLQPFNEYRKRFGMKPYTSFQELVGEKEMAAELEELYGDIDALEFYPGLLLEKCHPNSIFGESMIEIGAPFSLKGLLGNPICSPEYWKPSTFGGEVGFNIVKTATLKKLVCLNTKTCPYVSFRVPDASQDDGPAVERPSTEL

Row | CYP1A1 Induction mean ± SE (CYP1A1 gene expression; NHEK adult, 6 h, SRM1650 1.5 μg/cm2, untreated = 1, particles alone 2.90) | CYP1A1 Induction mean ± SE (CYP1A1 gene expression; NHEK adult, 6 h, SRM2975 1.5 μg/cm2, untreated = 1, particles alone 1.03) | CYP1A1 Induction mean ± SE (CYP1A1 gene expression; NHEK adult, 24 h, SRM2975 1.5 μg/cm2, untreated = 1, particles alone 4.90) | inhibition of particle induced Cyp1A1 gene expression (in words) (CYP1A1 gene expression; indoor as well as outdoor model particles) | CYP1A1 Induction mean ± SE (CYP1A1 gene expression; indoor particles Huber990 1.5 μg/cm2, 6 h, untreated = 1, particles alone 2.70) | CYP1A1 Induction mean ± SE (CYP1A1 gene expression; indoor particles Huber990 1.5 μg/cm2, 24 h, untreated = 1, particles alone 2.90) | Molecule | inhibition of particle induced POMC gene expression (in words) (POMC gene expression) | inhibition of 5-lipoxygenase (in words) (5-lipoxygenase) | inhibition of cyclooxygenase-1 activity (in words) (cyclooxygenase-1) | inhibition of particle induced IL-6 gene expression (in words) (IL-6 gene expression) | inhibition of particle induced MMP1 gene expression (in words) (MMP1 gene expression) | upregulation of the AhR by UVB radiation (in words) (AhR)
1 |  |  |  |  |  |  | CC1(C)CCC[C@]2(C)C3CC(=O)O[C@]3(C)CC[C@@H]12 (stereo partly drawn) [Sclareolide, (3aR,5aS,9aS,9bR)-decahydro-3a,6,6,9a-tetramethyl-naphtha[2,1-b]furan-2(1H)-one] | capable to inhibit | inhibition | inhibition |  |  | 
2 |  |  |  |  |  |  | C=C[C@](C)(O)CC[C@@H]1[C@@]2(C)CCCC(C)(C)[C@@H]2CC[C@@]1(C)O [sclareol, reference compound] |  | inhibition | inhibition |  |  | 
3 | 0.02 ± 0.00 | 0.20 ± 0.00 | 0.01 ± 0.00 | capable to inhibit | 0.05 ± 0.00 | 0.20 ± 0.00 | E/Z-2-benzylindene-5,6-dimethoxy-3,3-dimethylindan-1-one [BDDI] | capable to inhibit |  |  | capable to inhibit | capable to inhibit | prevent the upregulation
